Results: patent publication US8383581B2, “Short-chain peptides as parathyroid hormone (PTH) receptor agonist” (Cadila Healthcare Limited, priority 2009, dated 2013)
Where a SMILES comes first, the peptide text is derived from it. [ ]: non-standard residue; d: D form. ξ: configuration not given here. ξαMeBip(2'-Et,4'-OMe) = CCc1cc(OC)ccc1-c1ccc(CC(C)(N)C(=O)O)cc1; ξBip(2'-Et-4'-OMe) = CCc1cc(OC)ccc1-c1ccc(CC(N)C(=O)O)cc1; ξαMePhe(2,6-F2) = CC(N)(Cc1c(F)cccc1F)C(=O)O; ξαMe(hhPhe) = CC(N)(CCCc1ccccc1)C(=O)O; ξαMePhe(2-F) = CC(N)(Cc1ccccc1F)C(=O)O; hArg = N=C(N)NCCCC[C@H](N)C(=O)O; ξhhPhe = NC(CCCc1ccccc1)C(=O)O; ξαMeNle = CCCCC(C)(N)C(=O)O; Nle = CCCC[C@H](N)C(=O)O; Ac5c = NC1(C(=O)O)CCCC1; Aib = CC(C)(N)C(=O)O

Tested on: ovariectomised (OVX) rats
Test: In vivo anti-osteoporosis activity testing in OVX rat model (serum calcium, phosphate, bone parameters)
Parameters: species or system Female Wistar Rats
Settings: po
Description: c) In Vivo Anti-Osteoporosis Activity Testing in OVX Rat Model: The ovariectomised (OVX) rats were used to study anti-osteoporosis activity of test compounds (short-chain peptides) in vivo. The OVX rats develop osteopenia due to ovarian hormone deficiency. Osteopenia can be detected as early as 14 days post OVX, increase for the next 100 days and then stabilised (Wronski T. J., et al., Calcif. Tissue Int., 43(3), 1988, 179-183). Detailed Study Protocol to Evaluate the Effects of Anabolic Therapy on Bone Markers and Histomorphometry in OVX Animals: 10 to 11 weeks old Female Wistar Rats (150-200 g) were used. The animals were kept in individually ventilated cages in a room with controlled temperature (23°±3° C.), lighting (12:12 h light-dark cycle) and relative humidity (55±10%). Animals had free access to standard rat chow and water. Protocol for use of animals for conducting this study has been reviewed and approved by Institutional Animal Ethics Committee (IAEC). The animals were marked with picric acid for identification and acclimatized to experimental room conditions for 2 days prior to initiation of the study. For the induction of osteoporosis, rats were bilaterally ovariectomised under anesthesia. For Ovariectomy, Incision was made on dorsa-lateral side near lumbar region of animal. After that, ovary was excised and the veins were tied with ligature before removing ovary to prevent blood loss. Then incision was sutured back with ligature. After Bilateral ovariectomy, animals were allowed to rest for 4 weeks. They were then divided into different groups (n=9) based on their body weight. The groups consisted of a no treatment control, PTH as standard and one or two groups of test compounds (short-chain peptides). The treatment was given for the duration of 6 weeks. At the last day of treatment animals were kept overnight in metabolic cages under fasting for the collection of Urine. Next day, blood was collected after 24 hours of last dosing and animals were sacrificed. Changes in biochemical parameters and bone turnover parameters (Increase in serum Calcium and decrease in Phosphate levels, Acid Phosphatase and TRAP) were evaluated in the urine and serum. After sacrificing, intact femur and tibial bones are removed and cleaned from adherent tissues, muscles and tendons; weighed and collected in formal saline (10% formaldehyde solution). Lumbar vertebra (L5) was excised, carefully cleaned and collected in formal saline. Femur, tibia and Lumbar vertebra-5 (L5) were later processed for histomorphometric evaluation (Zhang L., et al., Tohoku J Exp Med., 1998, 186(2), 131-41; Tanizawa T., et al., Toxicol Lett., 1998, 102, 399-403).

CCCCC(C)(NC(=O)[C@H](CC(C)C)NC(=O)[C@H](CCC(N)=O)NC(=O)[C@@H](NC(=O)[C@H](CCC(=O)O)NC(=O)C(C)(C)NC(=O)[C@@H](NC(=O)C(C)(C)N)C(C)C)[C@@H](C)CC)C(=O)N[C@@H](Cc1c[nH]cn1)C(=O)N[C@@H](CCC(N)=O)C(=O)N[C@@H](CCCCNC(=N)N)C(=O)N[C@@H](C)C(=O)N[C@@H](CCCCNC(=N)N)C(=O)NC(C)(Cc1ccc(-c2ccc(OC)cc2CC)cc1)C(=O)NC(CCCc1ccccc1)C(N)=O (stereo partly drawn) [Seq. ID. 911] (H-[Aib]V[Aib]EIQL[ξαMeNle]HQ[hArg]A[hArg][ξαMeBip(2'-Et,4'-OMe)][ξhhPhe]-NH2)
% decrease in serum PO4 Levels (mg/dl) vs control (10 mg/kg): 97%
% increase in serum Ca^2+ Levels (mg/dl) vs control (10 mg/kg): 121%

CCCC[C@H](NC(=O)C(C)(Cc1c(F)cccc1F)NC(=O)[C@H](CCC(N)=O)NC(=O)[C@@H](NC(=O)[C@H](CCC(=O)O)NC(=O)C(C)(C)NC(=O)[C@@H](NC(=O)C1(N)CCCC1)C(C)C)[C@@H](C)CC)C(=O)N[C@@H](Cc1c[nH]cn1)C(=O)N[C@@H](CCC(N)=O)C(=O)NC(C)(Cc1c(F)cccc1F)C(=O)N[C@@H](C)C(=O)NC(C)(Cc1c(F)cccc1F)C(=O)NC(C)(Cc1ccccc1F)C(N)=O (stereo partly drawn) [Seq. ID. 511] (H-[Ac5c]V[Aib]EIQ[ξαMePhe(2,6-F2)][Nle]HQ[ξαMePhe(2,6-F2)]A[ξαMePhe(2,6-F2)][ξαMePhe(2-F)]-NH2)
% decrease in serum PO4 Levels (mg/dl) vs control (1 mg/kg): 88%
% increase in serum Ca^2+ Levels (mg/dl) vs control (1 mg/kg): 84%

CCCC[C@H](NC(=O)[C@H](CC(C)C)NC(=O)[C@H](CCC(N)=O)NC(=O)[C@@H](NC(=O)[C@H](CCC(=O)O)NC(=O)C(C)(C)NC(=O)[C@@H](NC(=O)C(C)(C)NC(=O)[C@@H](N)C(C)C)C(C)C)[C@@H](C)CC)C(=O)N[C@@H](Cc1c[nH]cn1)C(=O)N[C@@H](CCC(N)=O)C(=O)N[C@@H](CCCCNC(=N)N)C(=O)N[C@@H](C)C(=O)N[C@@H](CCCCN)C(=O)NC(Cc1ccc(-c2ccc(OC)cc2CC)cc1)C(=O)NC(C)(CCCc1ccccc1)C(N)=O (stereo partly drawn) [Seq. ID. 893] (H-V[Aib]V[Aib]EIQL[Nle]HQ[hArg]AK[ξBip(2'-Et-4'-OMe)][ξαMe(hhPhe)]-NH2)
% decrease in serum PO4 Levels (mg/dl) vs control (0.3 mg/kg): 89%
% increase in serum Ca^2+ Levels (mg/dl) vs control (0.3 mg/kg): 108%

CCCC[C@H](NC(=O)[C@H](CC(C)C)NC(=O)[C@H](CCC(N)=O)NC(=O)[C@@H](NC(=O)[C@H](CCC(=O)O)NC(=O)C(C)(C)NC(=O)[C@@H](NC(=O)C(C)(C)N)C(C)C)[C@@H](C)CC)C(=O)N[C@@H](Cc1c[nH]cn1)C(=O)N[C@@H](CCC(N)=O)C(=O)NC(C)(Cc1c(F)cccc1F)C(=O)N[C@@H](C)C(=O)NC(C)(C)C(=O)NC(Cc1ccc(-c2ccc(OC)cc2CC)cc1)C(=O)NC(CCCc1ccccc1)C(N)=O (stereo partly drawn) [Seq. ID. 798] (H-[Aib]V[Aib]EIQL[Nle]HQ[ξαMePhe(2,6-F2)]A[Aib][ξBip(2'-Et-4'-OMe)][ξhhPhe]-NH2)
% decrease in serum PO4 Levels (mg/dl) vs control (5 mg/kg): 82%
% increase in serum Ca^2+ Levels (mg/dl) vs control (5 mg/kg): 88%

CCc1cc(OC)ccc1-c1ccc(CC(C)(NC(=O)[C@H](CCCCNC(=N)N)NC(=O)[C@H](C)NC(=O)[C@H](CCCCNC(=N)N)NC(=O)[C@H](CCC(N)=O)NC(=O)[C@H](Cc2c[nH]cn2)NC(=O)[C@H](CCSC)NC(=O)[C@H](CC(C)C)NC(=O)[C@H](CCC(N)=O)NC(=O)[C@@H](NC(=O)[C@H](CCC(=O)O)NC(=O)C(C)(C)NC(=O)[C@@H](NC(=O)C(C)(C)NC(=O)[C@@H](N)C(C)C)C(C)C)[C@@H](C)CC)C(=O)NC(CCCc2ccccc2)C(N)=O)cc1 (stereo partly drawn) [Seq. ID. 902] (H-V[Aib]V[Aib]EIQLMHQ[hArg]A[hArg][ξαMeBip(2'-Et,4'-OMe)][ξhhPhe]-NH2)
% decrease in serum PO4 Levels (mg/dl) vs control (0.8 mg/kg): 98%
% increase in serum Ca^2+ Levels (mg/dl) vs control (0.8 mg/kg): 110%

CCCC[C@H](NC(=O)C(C)(Cc1ccccc1F)NC(=O)[C@H](CCC(N)=O)NC(=O)[C@@H](NC(=O)[C@H](CCC(=O)O)NC(=O)C(C)(C)NC(=O)[C@@H](NC(=O)C1(N)CCCC1)C(C)C)[C@@H](C)CC)C(=O)N[C@@H](Cc1c[nH]cn1)C(=O)N[C@@H](CCC(N)=O)C(=O)N[C@@H](CCCCNC(=N)N)C(=O)NC(C)(C)C(=O)NC(C)(Cc1c(F)cccc1F)C(=O)NC(C)(Cc1ccccc1F)C(N)=O (stereo partly drawn) [Seq. ID. 210] (H-[Ac5c]V[Aib]EIQ[ξαMePhe(2-F)][Nle]HQ[hArg][Aib][ξαMePhe(2,6-F2)][ξαMePhe(2-F)]-NH2)
% decrease in serum PO4 Levels (mg/dl) vs control (1 mg/kg): 99%
% increase in serum Ca^2+ Levels (mg/dl) vs control (1 mg/kg): 96%
